According to patent US12622892B2, “Methods for treating endometriosis” (THE TEXAS A&M UNIVERSITY SYSTEM, priority 2020, dated 2026):

Legend:
NESC and EESC cells = settings: Zeng et al. 2018; cited from earlier work
GAL4-NR4A1 = biological target: T1, GAL4-NR4A1 (Homo sapiens, UniProt P22736); test: Luciferase assay, GAL4-NR4A1 chimera/UAS-luc in ESECT-7 cells; format: cell-based; settings: ESECT-7 cells transfected with GAL4-NR4A1 chimera/UAS-luc; 18 hr treatment; FIG. 2A
T1 construct: GAL4 (fusion partner); expressed in transfected cells; host or cells: ESECT-7 patient-derived endometriotic cells
T1 sequence (P22736 with tags, fused parts or gaps): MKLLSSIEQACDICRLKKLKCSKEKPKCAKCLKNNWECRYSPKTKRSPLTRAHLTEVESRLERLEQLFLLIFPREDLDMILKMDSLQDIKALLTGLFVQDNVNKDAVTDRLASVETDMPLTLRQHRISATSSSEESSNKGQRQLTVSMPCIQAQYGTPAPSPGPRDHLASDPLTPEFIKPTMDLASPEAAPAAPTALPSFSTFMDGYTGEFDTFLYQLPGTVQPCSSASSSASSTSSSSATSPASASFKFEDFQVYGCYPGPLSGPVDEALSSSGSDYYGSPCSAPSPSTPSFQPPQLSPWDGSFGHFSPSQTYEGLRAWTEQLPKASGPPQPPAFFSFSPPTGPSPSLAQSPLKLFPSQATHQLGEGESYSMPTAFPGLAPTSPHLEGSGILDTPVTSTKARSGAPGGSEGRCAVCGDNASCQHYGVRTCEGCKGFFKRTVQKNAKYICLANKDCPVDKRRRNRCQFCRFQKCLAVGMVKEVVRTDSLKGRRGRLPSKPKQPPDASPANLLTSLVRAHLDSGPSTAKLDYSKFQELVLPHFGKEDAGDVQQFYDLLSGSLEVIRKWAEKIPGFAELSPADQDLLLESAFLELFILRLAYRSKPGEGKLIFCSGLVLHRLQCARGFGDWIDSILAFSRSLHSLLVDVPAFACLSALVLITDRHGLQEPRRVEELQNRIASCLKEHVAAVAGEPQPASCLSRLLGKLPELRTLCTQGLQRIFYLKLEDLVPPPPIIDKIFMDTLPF
Protocol: (§1) Luciferase assay: ESECT-7 and ESECT-40 cells were plated on 12-well plates in DMEM/F12 supplemented with 2.5% charcoal-stripped FBS. After overnight attachment and growth, various amounts of DNA [i.e., UASx5-Luc (500 ng), GAL4-NR4A1 (50 ng), NBREx3-Luc (800 ng), NurREx3-Luc (800 ng) and Flag-NR4A1 (80 ng)] were co-transfected into each well using Lipofectamine 2000 reagent (Invitrogen, Carlsbad, CA) according to the manufacturer's protocol. After 6 hr of transfection, cells were treated with plating medium (as above) containing either solvent (DMSO) or indicated concentrations of the compound for 18 hr. Cells were then lysed and cell extracts were used for chemiluminescence quantification of luciferase activity. Luciferase activity values were normalized against corresponding protein concentration values determined by Bradford assay. Both GAL4- and Flag-NR4A1 constructs contain full-length NR4A1 coding sequence and all the plasmids used in this study were previously described.

NR4A1 [1] = biological target: T2, NR4A1 (Homo sapiens, UniProt P22736); test: Luciferase assay, NR4A1/NBRE-luc in ESECT-7 cells; format: cell-based; settings: ESECT-7 cells transfected with NR4A1/NBRE-luc; 18 hr treatment; FIG. 2A
T2 construct: expressed in transfected cells; host or cells: ESECT-7 patient-derived endometriotic cells
T2 sequence (P22736 whole entry, species assumed): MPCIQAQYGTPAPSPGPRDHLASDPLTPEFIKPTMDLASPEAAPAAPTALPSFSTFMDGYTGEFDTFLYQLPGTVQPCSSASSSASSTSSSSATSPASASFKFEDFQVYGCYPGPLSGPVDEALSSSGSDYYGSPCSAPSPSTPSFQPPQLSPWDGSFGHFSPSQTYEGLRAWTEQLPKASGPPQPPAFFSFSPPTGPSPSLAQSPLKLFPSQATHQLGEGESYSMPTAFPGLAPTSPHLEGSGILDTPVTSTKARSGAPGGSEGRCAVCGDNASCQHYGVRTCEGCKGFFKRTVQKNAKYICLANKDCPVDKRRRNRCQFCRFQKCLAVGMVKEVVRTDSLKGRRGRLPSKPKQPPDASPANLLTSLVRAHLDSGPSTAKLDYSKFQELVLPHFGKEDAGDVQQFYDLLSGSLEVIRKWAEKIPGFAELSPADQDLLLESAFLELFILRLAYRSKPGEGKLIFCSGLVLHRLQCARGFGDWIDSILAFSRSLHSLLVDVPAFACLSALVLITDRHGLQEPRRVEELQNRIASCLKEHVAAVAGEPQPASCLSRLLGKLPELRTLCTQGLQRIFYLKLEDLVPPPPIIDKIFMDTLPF
Protocol: as §1

ESECT-7 cells [2] = test: Cell proliferation assay (MTT), ESECT-7; format: cell-based, human; settings: 24 hr; 5-10 μM DIM-C-pPhOH-3-Cl-5-OCH3, 15-25 μM DIM-C-pPhOH; FIG. 2C
Protocol: (§2) Primary human endometriotic stromal cells from endometriosis patients: Ovarian endometrioma were isolated from endometriosis patients in the proliferative phase following the IRB-approved protocol. Isolated ectopic lesions were digested with collagenase type 3 (300 μg/ml) and DNaseI (40 μg/ml) for 90 min at 37° C., and then tissues were filtered through 150, 100, and 40 μm sieves to isolate endometrial stromal cells. The collected endometrial stromal cells were cultured in DMEM/F12 with 10% FBS plus 1× antibiotic/antimycotic solution and then validated by flow cytometry with a CD90 antibody (a mesenchymal marker). Henceforth, we refer to the stromal cells as ectopic endometrium isolated ovarian endometrioma (ESECT). As the control, primary normal endometrial stromal cells isolated from the biopsy of the eutopic endometrium of normal women (NEM) in the proliferative phase. All cells were incubated at 37° C. in CO2 incubator in an atmosphere of humidified 5% CO2 and 95% air.
(§3) Cell proliferation assay: Patient-derived endometriotic cells ESECT-7 and ESECT-40 were seeded into a 96-well plate, and the cells were then treated for 24 hr with either DMSO or different concentrations of DIM-C-pPhOH and DIM-C-pPhOH-3-Cl-5-OCH3. […] Dimethyl sulfoxide (DMSO) was added and incubated at […] for 10 min, and absorbance was measured at 570 nm.

ESECT-40 cells [3] = test: Cell proliferation assay (MTT), ESECT-40; format: cell-based, human; settings: 24 hr; 5-10 μM DIM-C-pPhOH-3-Cl-5-OCH3, 15-25 μM DIM-C-pPhOH; FIG. 2C
Protocol: as §2, §3

NEM cells [4] = test: Cell growth, normal endometrial NEM cells; format: cell-based, human; settings: 24 hr; 15-25 μM DIM-C-pPhOH, 5-10 μM DIM-C-pPhOH-3-Cl-5-OCH3; vs DMSO control; FIG. 4A
Protocol: as §2, §3

NEM cells [5] = test: Western blotting of growth promoting and proapoptotic gene products, NEM cells; format: cell-based, human
ESECT-7 cells [6] = test: Annexin V staining, ESECT-7; format: cell-based, human; settings: 10 μM DIM-C-pPhOH-3-Cl-5-OCH3, 25 μM DIM-C-pPhOH, FIG. 3A
Protocol: (§4) Annexin V staining: ESECT-7 and ESECT-40 cells were seeded in Nunc chambered cover glass followed by various drug treatments. The cells were then washed with ice-cold PBS, and 5 μL Alexa Fluor® 488 Annexin V with 100 μg/mL PI (as per the manufacturer's instructions) were added to the cells and incubated for 15 min, and the cells were observed using a Zeiss confocal fluorescence microscope.

ESECT-40 cells [7] = test: Annexin V staining, ESECT-40; format: cell-based, human; settings: 10 μM DIM-C-pPhOH-3-Cl-5-OCH3, 25 μM DIM-C-pPhOH, FIG. 3B
Protocol: as §4

NEM cells [8] = test: Annexin V staining, NEM cells; format: cell-based, human; settings: 25 μM DIM-C-pPhOH, 10 μM DIM-C-pPhOH-3-Cl-5-OCH3, vs DMSO control, FIG. 4C
ESECT-7 cells [9] = test: α-SMA immunofluorescence, ESECT-7; format: cell-based, human; settings: vs control, FIG. 5A
Protocol: Immunofluorescence: ESECT-7 and ESECT-40 cells were seeded in Nunc chambered cover-glass followed by various drug treatments. The cells were fixed with 4% paraformaldehyde in PBS for 20 minutes at 37° C. Cells were then blocked and incubated overnight with primary α-SMA antibody in the buffer (5% bovine serum albumin in PBS) at 4° C., followed by incubation with Alexa Fluor conjugated secondary antibody at a dilution of 1:250 for 2 hours at room temperature. Finally, cells were observed using a Zeiss confocal fluorescence microscope.

ESECT-7 cells [10] = test: Quantitative real-time PCR of fibrosis markers, ESECT-7; format: cell-based, human; settings: 24 hours, 20-25 μM DIM-C-pPhOH, 5-10 μM DIM-C-pPhOH-3-Cl-5-OCH3, vs DMSO control, FIG. 5C
Protocol: Quantitative real-time PCR: Total RNA was isolated from cultured cells according to the manufacturer's instructions (Zymo Research, Irvine, CA). The concentration and purity of the RNA samples were determined using a nanodrop spectrophotometer. Total RNA was reverse transcribed using iTaq Universal SYBR Green One-Step Kit (Thermo Fisher Scientific, Grand Island, NY) using the manufacturer's protocol with the CFX384 real-time PCR System (Bio-Rad). The comparative cycle threshold method was used for relative quantitation of samples. Values for each gene were normalized to expression levels of TATA-binding protein. The sequences of the primers used for real-time PCR included the following: α-SMA, 5′-GGCCGAGATCTCACTGACTAC-3′ (sense, SEQ ID NO. 13) and 5′-TTC ATG GAT GCC AGC AGA-3′ (antisense, SEQ ID NO. 14); COL1A1, 5′-CAG CCG CTT CAC CTA CAG C-3′ (sense, SEQ ID NO. 15) and 5′-TTTTGTATTCAATCAGTGTCTTGCC-3′ (antisense, SEQ ID NO. 16); CTGF, 5′-TTGGCCCAGACCCAACTATG-3′(sense, SEQ ID NO. 17) and 5′-CAGGAGGCGTTGTCATTGGT-3′ (antisense, SEQ ID NO. 18); FN, 5′-GGG AGC CTC GAA GAG C-3′ (sense 19) and 5′-AACAAGTACAAACCAACGCA-3′ (antisense, SEQ ID NO. 20) and TATA-binding protein, 5′-GATCAGAACAACAGCCTGCC-3′ (sense, SEQ ID NO. 21) and 5′-TTCTGAATAGGCTGTGGGGT-3′ […].

IHEECs = test: Expression of fibrosis markers in IHEECs; format: cell-based, human; settings: 24 hours, vs control, FIG. 6B
Ishikawa cells = test: Expression of fibrosis markers in Ishikawa cells; format: cell-based; settings: 24 hours, FIG. 6D
NR4A1 [11] = biological target: T3, NR4A1 (Mus musculus, UniProt P12813); settings: C2C12 muscle cells; cited from earlier work
T3 construct: endogenous in cells; host or cells: C2C12 muscle cells
T3 sequence (P12813 whole entry): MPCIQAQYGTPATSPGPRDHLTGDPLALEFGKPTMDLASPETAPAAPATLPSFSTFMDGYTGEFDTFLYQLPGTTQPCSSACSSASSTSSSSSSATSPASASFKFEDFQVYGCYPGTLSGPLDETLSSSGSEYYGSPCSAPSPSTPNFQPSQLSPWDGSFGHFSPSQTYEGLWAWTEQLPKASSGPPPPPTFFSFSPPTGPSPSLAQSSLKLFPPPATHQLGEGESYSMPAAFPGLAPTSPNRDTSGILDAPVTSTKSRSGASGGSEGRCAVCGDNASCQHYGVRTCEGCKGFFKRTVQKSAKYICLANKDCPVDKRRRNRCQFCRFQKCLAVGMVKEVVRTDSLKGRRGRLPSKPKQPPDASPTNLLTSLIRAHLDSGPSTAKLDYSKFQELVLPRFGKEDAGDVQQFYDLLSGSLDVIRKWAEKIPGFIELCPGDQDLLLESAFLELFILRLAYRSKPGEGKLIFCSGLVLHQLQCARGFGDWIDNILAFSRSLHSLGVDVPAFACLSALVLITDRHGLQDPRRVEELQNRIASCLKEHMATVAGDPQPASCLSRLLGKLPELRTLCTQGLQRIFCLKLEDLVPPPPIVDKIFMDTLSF

## CCCCCCCC(=O)c1c(O)cc(O)cc1CC(=O)OCC [cytosporone β]
NESC and EESC cells
  TGFβ-induced fibrosis: inhibited TGFβ-induced fibrosis

## Oc1ccc(C(c2c[nH]c3ccccc23)c2c[nH]c3ccccc23)cc1Cl [4-OH-3-Cl, 1,1-bis(3′-indolyl)-1-(3-chloro-4-hydroxyphenyl)methane]
GAL4-NR4A1
  intrinsic transcriptional activity of GAL4-NR4A1: inhibited the intrinsic transcriptional activity
NR4A1 [1]
  intrinsic transcriptional activity of NR4A1: inhibited the intrinsic transcriptional activity

## Oc1c(Br)cc(C(c2c[nH]c3ccccc23)c2c[nH]c3ccccc23)cc1Br [4-OH-3,5-Br2]
GAL4-NR4A1
  intrinsic transcriptional activity of GAL4-NR4A1: inhibited the intrinsic transcriptional activity
NR4A1 [1]
  intrinsic transcriptional activity of NR4A1: inhibited the intrinsic transcriptional activity

## Oc1ccc(C(c2c[nH]c3ccccc23)c2c[nH]c3ccccc23)cc1 [DIM-C-pPhOH, 1,1-bis(3′-indolyl)-1-(p-hydroxyphenyl)methane]
GAL4-NR4A1
  intrinsic transcriptional activity of GAL4-NR4A1: inhibited the intrinsic transcriptional activity
NR4A1 [1]
  intrinsic transcriptional activity of NR4A1: inhibited the intrinsic transcriptional activity
ESECT-7 cells [2]
  growth of ESECT-7 cells: inhibited cell growth
ESECT-40 cells [3]
  growth of ESECT-40 cells: inhibited cell growth
NEM cells [4]
  growth of normal endometrial NEM cells: did not suppress the growth
NEM cells [5]; 25 μM DIM-C-pPhOH, 10 μM DIM-C-pPhOH-3-Cl-5-OCH3, vs DMSO control, FIG. 4D
  levels of the cleaved form of PARP and Bax: did not enhance
NEM cells [5]; 15-25 μM DIM-C-pPhOH, 5-10 μM DIM-C-pPhOH-3-Cl-5-OCH3, vs DMSO control, FIG. 4B
  cMyc and EGFR expression: did not decrease
ESECT-7 cells [6]
  Annexin V staining (apoptosis): induced apoptosis
ESECT-40 cells [7]
  Annexin V staining (apoptosis): induced apoptosis
NEM cells [8]
  Annexin V staining: did not enhance
ESECT-7 cells [9]
  expression of SMA levels: decreased expression of SMA levels
ESECT-7 cells [10]
  mRNA levels of fibrosis markers (FN, Col1A1, CTGF): decreased mRNA levels
IHEECs
  expression of fibrosis markers (α-SMA, COL1A1, FN, CTGF): decreased expression of fibrosis markers
Ishikawa cells
  expression of fibrosis markers (α-SMA, COL1A1, FN, CTGF): decreased expression of fibrosis markers
NR4A1 [11]
  NR4A1 agonist activity, induction of genes involved in glucose uptake: worked as NR4A1 agonists
